Measured values from US20230000842A1, “METHODS OF TREATING CARTILAGE DISORDERS THROUGH INHIBITION OF CLK AND DYRK” (SAMUMED, LLC, priority 2019, published 2023).
Values belong to the molecule of their own block, whether it stands above or below them.

What was measured:
CLK2 kinase = CLK2 kinase (Homo sapiens, UniProt P49760); assay: CLK2 kinase activity assay (Z-lyte FRET); assay type: biochemical; conditions: Z-lyte Ser/Thr 6 peptide, 60 μM ATP, 1 h at room temperature;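 further: FRET read-out as coumarin to fluorescein emission ratio, unphosphorylated peptide as 0% and phosphorylated peptide as 100% controls, duplicate reactions, non-linear regression fit of dose-response curves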
[1] = tested on: Wnt pathway activity (SW480 colon carcinoma cells stably expressing the Sp5-Luc reporter); assay: Wnt pathway activity screening assay (Sp5-Luc reporter gene assay); conditions: Homo sapiens, SW480, Table 4; SW480 cells stably expressing Sp5-Luc reporter, 10-point dose-response from 10 μM, 36 to 48 hours
CLK3 kinase = CLK3 kinase (Homo sapiens, UniProt P49761); assay: CLK3 kinase activity assay (Z-lyte FRET); assay type: biochemical; conditions: Z-lyte Ser/Thr 18 peptide, 156 μM ATP, 1 h at room temperature;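 further: kinase activity read as coumarin/fluorescein emission ratio by FRET, unphosphorylated peptide as 0% and phosphorylated peptide as 100% control, values from non-linear regression of dose-response curves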
[2] = tested on: MMP-3 levels in supernatant of chondrocytes stimulated with IL1-β; assay: Chondrocyte protection assay compound screening (MMP-3 LANCE Ultra); assay type: cell-based, human; conditions: Homo sapiens, Chondrocyte, IL1-β 10 ng/mL overnight, 11-point curves from 3 μM to 0.05 nM; for Emax: read-out: Maximum % Inhibition
Procedure: Human Chondrocyte Cell Culture: Primary human chondrocytes were purchased from Lonza (Walkersville, Md.) and expanded in Chondrocyte Growth Media (CGM, Lonza). Cells between passage 2 and 5 were used for the experiments.
Chondrocytes were plated at 8,000 cells/well in 40 μL/well Chondrocyte Differentiation Medium (Lonza; 500 mL Basal Medium, 25 mL FBS, 0.5 mL GA-1000, 1 mL R3-IGF, 2.5 mL bFGF, 0.5 mL Transferrin, and 1 mL Insulin). After 2 hours of incubation at 37° C. and 5% CO2, IL1-β (Peprotech, Rocky Hill, N.J.) was added to a final concentration of 10 ng/mL. 11 wells in 1 row were left unstimulated for normalization and calculating EC50 values. Cells were incubated at 37° C. and 5% CO2 overnight. Assay plates are spun, 25 μl of supernatant media was collected using (S2 pipettor, Apricot Designs). Cells were lysed using 10 μL of (Cell Titer-Glo, Promega). Luminescent signal detected using an En Vision Multilabel reader (Perkin Elmer). MMP-3 levels were measured in supernatant. Supernatant diluted 1:7 in DMEM. MMP-3 levels in the supernatant were measured using MMP-3 LANCE Ultra detection kit (Perkin Elmer). Briefly, 5 μL of diluted supernatant was transferred to low-volume 384 well plates using (S2 pipettor, Apricot Designs). A standard curve was prepared using MMP-3 analyte (range […]). 1.7 μL of 8× mix of Eu-labelled anti-MMP-3 antibody and ULight labelled anti-MMP-3 antibody was added to the plates using Mantis Liquid handler (Formulatrix). Plates were incubated overnight at room temperature. LANCE signal was detected using an EnVision Multilabel reader (Perkin Elmer), equipped with TR-FRET using excitation wavelength of 320 nm and two emission wavelengths of 615 nm and 665 nm. Data was analyzed according to the kit protocol, using the ratio of […] and the standard curve values were used to calculate the amount of MMP3 in the […] (in pg/ml). The normalized averages (fold change over IL1-β stimulated) for each compound concentration were calculated. EC50 and maximum % inhibition values were calculated using the dose-response nonlinear regression curve-fit in Dotmatics.

[3] = tested on: primary human mesenchymal stem cells (hMSCs); assay: Chondrogenesis screening using primary human mesenchymal stem cells; assay type: cell-based; conditions: Homo sapiens, Mesenchymal stem cells, hMSC chondrogenesis; maximum activity relative to TGF-β3 (10 ng/mL) positive control; read-out: Max. Activity as % TGF-β3 activity
Method in brief: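 Primary hMSCs at passage 3–6 were treated across compound concentrations, with TGF-β3 as positive control. Chondrogenic nodule area per well was normalized to 3 DMSO wells on the same plate (fold over DMSO, 2–3 replicates). EC50, maximum activity and the dose reaching it were derived.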

Chain of CLK2 kinase (P49760 whole entry): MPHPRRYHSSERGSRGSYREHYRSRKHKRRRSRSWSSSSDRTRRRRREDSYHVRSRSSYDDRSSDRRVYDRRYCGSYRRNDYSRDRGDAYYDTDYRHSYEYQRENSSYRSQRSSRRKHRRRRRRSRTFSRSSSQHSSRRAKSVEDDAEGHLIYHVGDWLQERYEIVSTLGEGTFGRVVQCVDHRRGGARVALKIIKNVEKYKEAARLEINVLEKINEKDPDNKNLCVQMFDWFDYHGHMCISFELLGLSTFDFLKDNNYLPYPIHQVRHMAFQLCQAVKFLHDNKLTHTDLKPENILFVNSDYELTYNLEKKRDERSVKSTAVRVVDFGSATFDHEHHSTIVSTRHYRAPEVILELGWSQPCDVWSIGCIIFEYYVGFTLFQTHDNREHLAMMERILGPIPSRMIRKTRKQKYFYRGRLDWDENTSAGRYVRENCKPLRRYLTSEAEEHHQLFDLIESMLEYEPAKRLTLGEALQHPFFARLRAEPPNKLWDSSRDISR
Chain of CLK3 kinase (P49761 whole entry): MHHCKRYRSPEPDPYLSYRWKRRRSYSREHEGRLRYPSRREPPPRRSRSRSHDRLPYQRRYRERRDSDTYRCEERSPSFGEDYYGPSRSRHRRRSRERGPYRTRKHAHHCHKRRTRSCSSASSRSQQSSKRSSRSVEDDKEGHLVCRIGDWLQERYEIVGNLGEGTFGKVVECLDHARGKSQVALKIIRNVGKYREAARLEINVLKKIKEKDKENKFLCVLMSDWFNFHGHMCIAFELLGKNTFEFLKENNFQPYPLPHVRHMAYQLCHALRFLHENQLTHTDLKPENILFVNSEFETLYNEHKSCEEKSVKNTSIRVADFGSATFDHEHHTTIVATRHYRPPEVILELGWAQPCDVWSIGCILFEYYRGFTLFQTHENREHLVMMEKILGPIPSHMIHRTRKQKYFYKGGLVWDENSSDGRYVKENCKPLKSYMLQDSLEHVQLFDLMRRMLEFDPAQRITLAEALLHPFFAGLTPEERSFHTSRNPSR

EC50 (CLK2 kinase): 24 nM
EC50 [1]: 119 nM
EC50 (CLK3 kinase): 3700 nM
SMILES: O=C(Nc1c[nH]nc1C(=O)Nc1ccc(OCCN2CCCC2)cc1)c1cccnc1 [compound 3]
EC50 [2]: 811 nM
Emax [2]: 23.7%

EC50 (CLK2 kinase): 27 nM
EC50 [1]: 613 nM
EC50 (CLK3 kinase): 6160 nM
SMILES: COc1cncc(C(=O)Nc2c[nH]nc2C(=O)Nc2ccc3c(c2)CCNC3)c1 [compound 8]
EC50 [2]: 342 nM
Emax [2]: 76%

EC50 (CLK2 kinase): 45 nM
EC50 [1]: 558 nM
EC50 (CLK3 kinase): 6090 nM
SMILES: COc1cncc(C(=O)Nc2c[nH]nc2C(=O)Nc2ccc3c(c2)CCN(C)C3)c1 [compound 9]
EC50 [2]: ≥ 3000 nM
Emax [2]: 65.6%

EC50 (CLK2 kinase): 9 nM
EC50 [1]: 2.5 nM
EC50 (CLK3 kinase): 5150 nM
SMILES: O=C(Nc1c[nH]nc1C(=O)Nc1ccc(N2CCCC2)nc1)c1cncc(OC2CCNCC2)c1 [compound 11]
EC50 [2]: ≥ 3000 nM
Emax [2]: 80%

EC50 (CLK2 kinase): 20 nM
EC50 [1]: 2150 nM
EC50 (CLK3 kinase): 3990 nM
SMILES: Cc1[nH]nc(C(=O)Nc2ccc(CN3CCCC3)cc2)c1/C=C/c1cccnc1 [compound 18]
EC50 [2]: 1050 nM
Emax [2]: 25.5%

EC50 (CLK2 kinase): 5 nM
EC50 [1]: 1650 nM
EC50 (CLK3 kinase): 563 nM
SMILES: O=C(Nc1ccc(N2CCNCC2)nc1)c1n[nH]cc1/C=C/c1cccnc1 [compound 20]
EC50 [2]: 0.2 nM
Emax [2]: 72.6%

EC50 (CLK2 kinase): 4 nM
EC50 [1]: 964 nM
EC50 (CLK3 kinase): 733 nM
SMILES: CN1CCC(Oc2ccc(NC(=O)c3n[nH]cc3/C=C/c3cccnc3)cn2)CC1 [compound 21]
EC50 [2]: ≥ 3000 nM
Emax [2]: 92.6%

EC50 (CLK2 kinase): 7 nM
EC50 [1]: > 10000 nM
EC50 (CLK3 kinase): 2330 nM
SMILES: Cc1[nH]nc(C(=O)Nc2ccc(OC3CCN(C)CC3)nc2)c1/C=C/c1cccnc1 [compound 22]
EC50 [2]: 17.8 nM
Emax [2]: 64.6%

EC50 (CLK2 kinase): 25 nM
EC50 [1]: 1900 nM
EC50 (CLK3 kinase): 4260 nM
SMILES: Cc1n[nH]c2ccc(-c3cncc(N4CCC(O)CC4)n3)cc12 [compound 39]
EC50 [2]: 47.8 nM
Emax [2]: 60.8%

EC50 (CLK2 kinase): 1 nM
EC50 [1]: 95 nM
EC50 (CLK3 kinase): 309 nM
SMILES: Cc1n[nH]c2ccc(-c3cncc(N[C@H]4CC[C@H](O)CC4)n3)cc12 [compound 43]
EC50 [2]: ≥ 3000 nM
Emax [2]: 41.9%

EC50 (CLK2 kinase): 1 nM
EC50 [1]: 196 nM
EC50 (CLK3 kinase): 47 nM
SMILES: O=C(Nc1ccc(CN2CCCC2)cc1)c1n[nH]c2ccc(-c3cccnc3F)cc12 [compound 65]
EC50 [2]: ≥ 3000 nM
Emax [2]: 98.1%

EC50 (CLK2 kinase): 1 nM
EC50 [1]: 477 nM
EC50 (CLK3 kinase): 49 nM
SMILES: CN1CCC(Oc2ccc(NC(=O)c3n[nH]c4ccc(-c5ccc(N)nc5)cc34)cc2)CC1 [compound 66]
EC50 [2]: 4.9 nM
Emax [2]: 62.6%

EC50 (CLK2 kinase): 1 nM
EC50 (CLK3 kinase): 14 nM
SMILES: CN1CCC(Oc2ccc(C(=O)Nc3cc4cc(-c5cnn(C)c5)ccc4cn3)cc2)CC1 [compound 541]
Emax [3]: 25.4%
EC50 [2]: ≥ 3000 nM
Emax [2]: 95.6%

EC50 (CLK2 kinase): 2 nM
EC50 (CLK3 kinase): 15 nM
SMILES: Cn1ncc(-c2ccc3cnc(NC(=O)c4cccc(CN5CCCC5)c4)cc3c2)c1CN1CCCCC1 [compound 572]
Emax [3]: 27.6%
EC50 [2]: 1190 nM
Emax [2]: 96.5%

EC50 (CLK2 kinase): 2 nM
EC50 (CLK3 kinase): 26 nM
SMILES: CC(C)N1CCC(Oc2cc(C(=O)Nc3cc4cc(-c5cnn6c5CCNC6)ccc4cn3)ccn2)CC1 [compound 575]
Emax [3]: 18.6%
EC50 [2]: 75.8 nM
Emax [2]: 41.5%

EC50 (CLK2 kinase): 1 nM
EC50 (CLK3 kinase): 33 nM
SMILES: Cn1cncc1-c1ccc2cnc(NC(=O)c3ccc(F)cc3)cc2c1 [compound 580]
Emax [3]: 24.9%
EC50 [2]: ≥ 3000 nM
Emax [2]: 59.4%

EC50 (CLK2 kinase): 2 nM
EC50 (CLK3 kinase): 14 nM
SMILES: Cc1nnc(-c2ccc3cnc(NC(=O)c4ccnc(C5CCN(C)CC5)c4)cc3c2)s1 [compound 594]
EC50 [2]: 143 nM
Emax [2]: 35.3%

The remaining lines, values behind:

SMILES: O=C(Nc1c[nH]nc1C(=O)Nc1cccnc1)c1cccnc1 [compound 1]
EC50 (CLK2 kinase): 23 nM
EC50 [1]: 20.5 nM
EC50 (CLK3 kinase): 5300 nM
EC50 [2]: 38.9 nM
Emax [2]: 100%

SMILES: COc1cncc(C(=O)Nc2c[nH]nc2C(=O)Nc2ccc(CN(C)C)cc2)c1 [compound 4]
EC50 (CLK2 kinase): 57 nM
EC50 [1]: 123 nM
EC50 (CLK3 kinase): 6610 nM
EC50 [2]: ≥ 3000 nM
Emax [2]: 99.9%

SMILES: O=C(Nc1c[nH]nc1C(=O)Nc1ccc(N2CCCCC2)nc1)c1cncc(OC2CCNCC2)c1 [compound 13]
EC50 (CLK2 kinase): 14 nM
EC50 [1]: 662 nM
EC50 (CLK3 kinase): 3500 nM
EC50 [2]: ≥ 3000 nM
Emax [2]: 71%

SMILES: O=C(Nc1c[nH]nc1-c1nc2c(-c3cccc(F)c3)cccc2[nH]1)c1cccnc1 [compound 15]
EC50 (CLK2 kinase): 2 nM
EC50 [1]: 2.9 nM
EC50 (CLK3 kinase): 485 nM
EC50 [2]: 76.5 nM
Emax [2]: 100%

SMILES: O=C(Nc1ccc(OCCN2CCCC2)cc1)c1n[nH]cc1/C=C/c1cccnc1 [compound 19]
EC50 (CLK2 kinase): 6 nM
EC50 [1]: 1850 nM
EC50 (CLK3 kinase): 967 nM
EC50 [2]: ≥ 3000 nM
Emax [2]: 31.1%

SMILES: COc1ccc(NC(=O)c2n[nH]cc2/C=C/c2cncc(CN3CCCCC3)c2)cn1 [compound 24]
EC50 (CLK2 kinase): 26 nM
EC50 [1]: 1450 nM
EC50 (CLK3 kinase): 1250 nM
EC50 [2]: ≥ 3000 nM
Emax [2]: 74.1%

SMILES: O=C(Nc1ccc(C2CCC(F)(F)C2)nc1)c1n[nH]cc1C#Cc1cccnc1 (stereo not shown) [compound 27]
EC50 (CLK2 kinase): 32 nM
EC50 [1]: > 10000 nM
EC50 (CLK3 kinase): > 10000 nM
EC50 [2]: ≥ 3000 nM
Emax [2]: 88.5%

SMILES: Cc1n[nH]c2ccc(-c3cncc(OCCN)c3)cc12 [compound 34]
EC50 [1]: 1640 nM
EC50 (CLK3 kinase): 5250 nM
EC50 [2]: ≥ 3000 nM
Emax [2]: 12.9%

SMILES: Cc1n[nH]c2ccc(-c3cncc(N4CC(C)(N)C4)n3)cc12 [compound 36]
EC50 (CLK2 kinase): 70 nM
EC50 [1]: 3510 nM
EC50 (CLK3 kinase): 3400 nM
EC50 [2]: 1610 nM

SMILES: CCC1(N)CN(c2cncc(-c3ccc4[nH]nc(C)c4c3)n2)C1 [compound 37]
EC50 (CLK2 kinase): 43 nM
EC50 [1]: 1730 nM
EC50 (CLK3 kinase): 5500 nM
EC50 [2]: ≥ 3000 nM
Emax [2]: 55.1%

SMILES: Cc1n[nH]c2ccc(-c3cncc(N4CCC[C@H](N)C4)n3)cc12 [compound 38]
EC50 (CLK2 kinase): 35 nM
EC50 [1]: 1430 nM
EC50 (CLK3 kinase): 8010 nM
EC50 [2]: ≥ 3000 nM
Emax [2]: 97.5%

SMILES: Cc1n[nH]c2ccc(-c3cncc(NCC4(F)CNC4)n3)cc12 [compound 48]
EC50 (CLK2 kinase): 3 nM
EC50 [1]: 780 nM
EC50 (CLK3 kinase): 1100 nM
EC50 [2]: 2270 nM
Emax [2]: 100%

SMILES: Cc1n[nH]c2ccc(-c3cncc(OCC4(F)CNC4)n3)cc12 [compound 49]
EC50 (CLK2 kinase): 6 nM
EC50 [1]: 3250 nM
EC50 (CLK3 kinase): 2200 nM
EC50 [2]: 3.5 nM
Emax [2]: 66.1%

SMILES: Cc1n[nH]c2ccc(-c3cncc(OC[C@@H]4Cc5ccccc5CN4)n3)cc12 [compound 50]
EC50 (CLK2 kinase): 27 nM
EC50 [1]: 2810 nM
EC50 (CLK3 kinase): 5730 nM
EC50 [2]: ≥ 3000 nM
Emax [2]: 44.4%

SMILES: Cc1n[nH]c2ccc(-c3cc(OC[C@H](N)Cc4ccccc4)cnn3)cc12 [compound 53]
EC50 (CLK2 kinase): 19 nM
EC50 [1]: 1150 nM
EC50 (CLK3 kinase): 3490 nM
EC50 [2]: ≥ 3000 nM
Emax [2]: 74.9%

SMILES: O=C(Nc1cccnc1)c1n[nH]c2ncc(-c3cccnc3)cc12 [compound 61]
EC50 (CLK2 kinase): 8 nM
EC50 [1]: 795 nM
EC50 (CLK3 kinase): 916 nM
EC50 [2]: 2.2 nM
Emax [2]: 69.2%

SMILES: COc1ccc(NC(=O)c2n[nH]c3ccc(-c4cncc(CO)c4)cc23)cn1 [compound 67]
EC50 (CLK2 kinase): 1 nM
EC50 [1]: 96.6 nM
EC50 (CLK3 kinase): 41 nM
EC50 [2]: ≥ 3000 nM
Emax [2]: 48.7%

SMILES: c1cncc(-c2ccc3[nH]nc(-c4cc5c(-c6cccnc6)cncc5[nH]4)c3c2)c1 [compound 341]
Emax [3]: 58.2%
EC50 [1]: 310 nM
EC50 (CLK3 kinase): 3 nM
EC50 [2]: 1.1 nM
Emax [2]: 58.2%
